According to patent US10669240B2, “5-substituted indazole-3-carboxamides and preparation and use thereof” (Samumed, LLC, priority 2014, dated 2020):

Assays:
Type in all cases: cell-based
DYRK1A = DYRK1A (Homo sapiens (Human), UniProt Q13627); assay: DYRK1A activity Tau assay: pSer396 Tau in SH-SY5Y cells by ELISA / western blot; conditions: overnight (16-18 h) exposure
[1] = test system: Wnt activity (Wnt-responsive SP5 promoter luciferase reporter in SW480 cells); assay: Wnt activity reporter assay: SW480 cells with SP5 promoter-driven firefly luciferase; conditions: Homo sapiens, 24 h after compound addition, read-out: Wnt inhibition
How it was run: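 SW480 cells (APC-mutant colon line) stably carrying a lentiviral SP5-promoter (eight TCF/LEF sites) firefly luciferase reporter were plated at ~10,000 cells/well. Luminescence was normalized to DMSO-only cells and used for IC50.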

[2] = test system: primary human mesenchymal stem cells (hMSCs); assay: Chondrogenesis assay in primary human mesenchymal stem cells, nodule count vs TGF-β3 positive control; conditions: 6 days; for Conc (nM) of Max. activity: 6-point dose-response 2700 nM to 10 nM, dose at which maximum chondrogenesis activity was reached; for Max. Activity as % TGF-β3 activity: relative to TGF-β3 (10 ng/mL) positive control; for Conc (nM) of 100% TGF-β3 activity: concentration required to induce chondrogenesis equivalent to TGF-β3 (10 ng/mL)
From the text: The above synthesized compounds were screened using primary human mesenchymal stem cells (hMSCs) to determine their ability to induce chondrogenesis (process by which cartilage is developed).
Human Mesenchymal Stem Cell Culture:
Primary human mesenchymal stem cells (hMSCs) were purchased from Lonza (Walkersville, Md.) and expanded in Mesenchymal Stem Cell Growth Media (Lonza). Cells between passage 3 and 6 were used for the experiments.
Number of nodules in each well was normalized to the average of 3 DMSO treated wells on the same plate using Excel (Microsoft Inc.). The normalized averages (fold change over DMSO) of 3 replicate wells for each compound concentration were calculated. Due to solubility limitations of some of the compounds, curve fitting was incomplete leading to inaccurate EC50 determinations.
Using TGF-β3 as a positive control, the concentration of test compounds required to induce equivalent levels of chondrogenesis is reported. In addition, the maximum activity of each compound and the respective dose that each compound reached maximum chondrogenesis activity is reported.

[3] = test system: primary human fibroblasts derived from IPF patients (LL29 cells); assay: Inhibition of the fibrotic process: αSMA staining in TGF-β1 treated LL29 fibroblasts; conditions: Fibroblast, 72 h, TGF-β1 10 ng/ml, 3 days, read-out: Inhibition of fibrosis IC50
Experimental: The above synthesized compounds were screened using primary human fibroblasts (derived from IPF patients) treated with TGF-β1 to determine their ability to inhibit the fibrotic process.
Each compound was dissolved in DMSO as a 10 mM stock and used to prepare compound source plates. […] LL29 cells were plated at 1,000 cells/well in 50 μl/well serum free F12 medium. […] Wells untreated with TGF-β1 were used as control for normalization and calculating IC50 values. Cells were incubated at 37° C. and 5% CO2 for 3 days. Cells were fixed using 4% formaldehyde (Electron Microscopy Sciences), washed 3 times with PBS followed by blocking and permeabilization using 3% Bovine Serum Albumin (BSA; Sigma) and 0.3% Triton X-100 (Sigma) in PBS. […] The IC50 values are reported.

## CN1CCN(c2ccc(NC(=O)c3n[nH]c4ccc(-c5cncc(CN6CCC(F)(F)C6)c5)cc34)cn2)CC1 [Compound 55, 5-(5-((3,3-Difluoropyrrolidin-1-yl)methyl)pyridin-3-yl)-N-(6-(4-methylpiperazin-1-yl)pyridin-3-yl)-1H-indazole-3-carboxamide]
DYRK1A
  EC50: 1 nM
[1]
  IC50: 4 nM
[2]
  Conc (nM) of Max. activity: 100 nM
  Max. Activity as % TGF-β3 activity: 69%
[3]
  IC50: 140 nM

## O=C(Nc1cnccc1NC(=O)C1CC1)c1n[nH]c2ccc(-c3cncc(CN4CCCCC4)c3)cc12 [Compound 74, N-(4-(Cyclopropanecarboxamido)pyridin-3-yl)-5-(5-(piperidin-1-ylmethyl)pyridin-3-yl)-1H-indazole-3-carboxamide]
[1]
  IC50: 120 nM
[2]
  Conc (nM) of Max. activity: 10 nM
  Max. Activity as % TGF-β3 activity: 31%
[3]
  IC50: 2740 nM

## COc1ccc(NC(=O)c2n[nH]c3ccc(-c4cncc(CN5CCC(F)(F)C5)c4)cc23)cn1 [Compound 54, 5-(5-((3,3-Difluoropyrrolidin-1-yl)methyl)pyridin-3-yl)-N-(6-methoxypyridin-3-yl)-1H-indazole-3-carboxamide]
DYRK1A
  EC50: 2 nM
[1]
  IC50: 5 nM
[2]
  Conc (nM) of Max. activity: 300 nM
  Max. Activity as % TGF-β3 activity: 51%
[3]
  IC50: 51 nM

## CC(C)NC(=O)c1n[nH]c2ccc(-c3cncc(CN4CCC(F)(F)CC4)c3)cc12 [Compound 132, 5-(5-((4,4-Difluoropiperidin-1-yl)methyl)pyridin-3-yl)-N-isopropyl-1H-indazole-3-carboxamide]
DYRK1A
  EC50: 6 nM
[1]
  IC50: 47 nM
[2]
  Conc (nM) of Max. activity: 2700 nM
  Conc (nM) of 100% TGF-β3 activity: 2700 nM
[3]
  IC50: 237 nM

## Cc1cncc(NC(=O)c2n[nH]c3ccc(-c4cncc(CN5CCCCC5)c4)cc23)c1 [Compound 64, N-(5-Methylpyridin-3-yl)-5-(5-(piperidin-1-ylmethyl)pyridin-3-yl)-1H-indazole-3-carboxamide]
DYRK1A
  EC50: 2 nM
[1]
  IC50: 59 nM
[2]
  Conc (nM) of Max. activity: 2700 nM
  Max. Activity as % TGF-β3 activity: 83%
[3]
  IC50: 265 nM

## Cc1ccc(NC(=O)c2n[nH]c3ccc(-c4cncc(CN5CCCCC5)c4)cc23)cn1 [Compound 65, N-(6-Methylpyridin-3-yl)-5-(5-(piperidin-1-ylmethyl)pyridin-3-yl)-1H-indazole-3-carboxamide]
DYRK1A
  EC50: 1 nM
[1]
  IC50: 57 nM
[2]
  Conc (nM) of Max. activity: 900 nM
  Conc (nM) of 100% TGF-β3 activity: 900 nM
  Max. Activity as % TGF-β3 activity: 117%
[3]
  IC50: 172 nM

## CC(C)Oc1ccc(NC(=O)c2n[nH]c3ccc(-c4cncc(CN5CC6CC(C5)O6)c4)cc23)cn1 [Compound 85, 5-(5-((6-Oxa-3-azabicyclo[3.1.1]heptan-3-yl)methyl)pyridin-3-yl)-N-(6-isopropoxypyridin-3-yl)-1H-indazole-3-carboxamide]
DYRK1A
  EC50: 4 nM
[1]
  IC50: 61 nM
[2]
  Conc (nM) of Max. activity: 900 nM
  Max. Activity as % TGF-β3 activity: 49%
[3]
  IC50: 180 nM

## COc1cc(NC(=O)c2n[nH]c3ccc(-c4cncc(CN5CCCCC5)c4)cc23)ccn1 [Compound 78, N-(2-Methoxypyridin-4-yl)-5-(5-(piperidin-1-ylmethyl)pyridin-3-yl)-1H-indazole-3-carboxamide]
DYRK1A
  EC50: 2 nM
[2]
  Conc (nM) of Max. activity: 900 nM
  Max. Activity as % TGF-β3 activity: 79%

## Cc1ncc(NC(=O)c2n[nH]c3ccc(-c4cccnc4)cc23)cn1 [Compound 97, N-(2-Methylpyrimidin-5-yl)-5-(pyridin-3-yl)-1H-indazole-3-carboxamide]
DYRK1A
  EC50: 556 nM
[2]
  Conc (nM) of Max. activity: 2700 nM
  Conc (nM) of 100% TGF-β3 activity: 2700 nM
  Max. Activity as % TGF-β3 activity: 98%

## O=C(Nc1cccnc1)c1n[nH]c2ccc(-c3cncc(CN4CC5CC(C4)O5)c3)cc12 [Compound 84, 5-(5-((6-Oxa-3-azabicyclo[3.1.1]heptan-3-yl)methyl)pyridin-3-yl)-N-(pyridin-3-yl)-1H-indazole-3-carboxamide]
[1]
  IC50: 67 nM
[2]
  Conc (nM) of Max. activity: 900 nM
  Conc (nM) of 100% TGF-β3 activity: 900 nM
  Max. Activity as % TGF-β3 activity: 121%
[3]
  IC50: 132 nM
